Here are results for one molecule from ChEMBL document CHEMBL5321275, “Discovery, Optimization, and Evaluation of Novel N-(Benzimidazol-5-yl)-1,3,4-thiadiazol-2-amine Analogues as Potent STAT3 Inhibitors for Cancer Treatment” (J Med Chem, 2023).

The source made the active and inactive calls. No cut-off for these calls is given here.

One data set has as its system HEK-Blue IL-6. Briefly: Inhibition of IL-6/JAK/STAT3 signalling pathway in HEK-Blue IL-6 cells at 10 uM incubated for 16 hrs by QUANTI-blue assay relative to control. In kind it is cell-based. The following applies: Homo sapiens.
The subject of data set [1] is DU-145. Put plainly: Antiproliferative activity against human DU-145 cells assessed as inhibition of cell growth at 10 uM measured after 96 hrs by MTT assay relative to control. In kind it is functional.
Data set [2] has as its target T1, Signal transducer and activator of transcription 3 (Homo sapiens, UniProt P40763). Put plainly: Binding affinity to STAT3 (unknown origin) assessed as conformational change in STAT3 protein measured after 1 hr by circular dichroism method.
The target of data set [3] is T1, Signal transducer and activator of transcription 3. Briefly: Inhibition of STAT3 in human DU-145 cells assessed as downregulation of c-myc expression at upto 10 uM measured after 24 hrs. In kind it is cell-based.
Data set [4] concerns DU-145. Put plainly: Induction of cell cycle arrest in human DU-145 cells assessed as accumulation of cells at G0/G1 phase measured after 24 hrs by PI staining based flow cytometry analysis. Format: functional. The note with it: dose <= 10.0 µM.
Data set [5] has as its system DU-145. Briefly: Induction of apoptosis in human DU-145 cells assessed as induction of PARP cleavage at upto 10 uM measured after 48 hrs by […]. In kind it is functional, cell-based.
Data set [6] deals with DU-145. Put plainly: Antitumor activity against human DU-145 cells xenografted in Balb/c nude mouse model assessed as tumor growth inhibition at 50 mg/kg, ip administered once daily for 16 days by vernier caliper method relative to control. Format: functional. The note with it: DU-145, 384 h, time 16 day, read-out: TGI.
The nature of data set [7]: Toxicity in Balb/c mouse assessed as effect on body weight loss at 50 mg/kg, ip administered once daily for 16 days. Format: organism-based. The following applies: in vivo, 384 h, time 16 day.
Data set [8] is described as follows: Toxicity in Balb/c mouse assessed as serious adverse effect at 50 mg/kg, ip administered once daily for 16 days. Format: organism-based. The following applies: in vivo, 384 h, time 16 day.
A short description of data set [9]: Toxicity in Balb/c mouse assessed as effect on liver at 50 mg/kg by hematoxylin and eosin staining based histopathological analysis. The note with it: in vivo. In kind it is organism-based.
A short description of data set [10]: Drug concentration in ICR mouse plasma at 5 mg/kg, iv measured at 2 mins. In kind it is ADME, organism-based.
Data set [11] is described as follows: AUC (0 to t) in ICR mouse at 50 mg/kg, po measured upto 96 hrs by HPLC-MS/MS analysis. Format: ADME, organism-based. Further details: dose 50 mg/kg, time < 96 hrs, route po. The note with it: in vivo.
Data set [12] can be described thus: Half life in ICR mouse at 50 mg/kg, po measured upto 96 hrs by HPLC-MS/MS analysis. Format: ADME, organism-based. The note with it: in vivo.
The nature of data set [13]: Cmax in ICR mouse at 50 mg/kg, po measured upto 96 hrs by HPLC-MS/MS analysis. In kind it is ADME, organism-based. Details: time < 96 hrs, dose 50 mg/kg, route po. The following applies: in vivo.
Data set [14] is described as follows: MRT (0 to t) in ICR mouse at 5 mg/kg, iv measured upto 96 hrs by HPLC-MS/MS analysis. Format: ADME, organism-based. The following applies: in vivo.

T1 sequence (P40763 whole entry): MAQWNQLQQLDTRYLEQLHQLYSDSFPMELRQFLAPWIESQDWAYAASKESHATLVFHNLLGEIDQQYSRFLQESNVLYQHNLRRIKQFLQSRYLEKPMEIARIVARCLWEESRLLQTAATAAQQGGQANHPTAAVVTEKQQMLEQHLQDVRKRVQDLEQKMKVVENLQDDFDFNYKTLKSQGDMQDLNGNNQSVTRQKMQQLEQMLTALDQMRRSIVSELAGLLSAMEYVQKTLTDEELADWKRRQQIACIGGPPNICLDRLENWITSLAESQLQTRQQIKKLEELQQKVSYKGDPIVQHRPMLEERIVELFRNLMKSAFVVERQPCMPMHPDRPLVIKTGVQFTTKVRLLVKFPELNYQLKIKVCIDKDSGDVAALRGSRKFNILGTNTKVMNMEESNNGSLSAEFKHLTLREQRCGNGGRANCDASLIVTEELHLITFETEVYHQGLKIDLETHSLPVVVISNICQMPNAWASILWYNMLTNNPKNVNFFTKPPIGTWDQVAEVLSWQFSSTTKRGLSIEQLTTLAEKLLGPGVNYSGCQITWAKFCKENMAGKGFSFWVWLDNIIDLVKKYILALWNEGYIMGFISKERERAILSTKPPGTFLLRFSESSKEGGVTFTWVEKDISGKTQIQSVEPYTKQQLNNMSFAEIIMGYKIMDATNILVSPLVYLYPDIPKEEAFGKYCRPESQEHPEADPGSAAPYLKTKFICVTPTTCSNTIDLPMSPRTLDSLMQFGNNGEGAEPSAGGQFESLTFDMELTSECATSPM

With `CN1CCN(c2cc3c(cc2Nc2nnc(-c4ccc(C(F)(F)F)cc4)s2)nc(-c2ccc(F)cc2)n3C2CC2)CC1`, the inhibition in the data set on HEK-Blue IL-6 was 101%. For the same molecule, in the data set with DU-145 [1], the inhibition at 10 µM came out at 92.7%. Further, the outcome (in data set [2]; with DU-145 [5]) was Active. Also, the inhibition entry in [3] is “Active”. The Activity entry was “Dose-Dependent Effect” in the data set with DU-145 [4], “Non-Toxic” in [7], “Non-Toxic” in data set [8] and “Non-Toxic” in data set [9]. Also, the inhibition in vivo at 50 mg/kg in the data set with DU-145 [6] amounted to 65.3%. The molecule further yielded a concentration at 2 min in [10] of 549 ng/mL. The same molecule gave an AUC(0-t) at 96 h in data set [11] of 17800 ng·h/mL. For the same molecule, in data set [12], the half-life was 596 min. This molecule registered a Cmax in data set [13] of 910 ng/mL. The molecule also came in with an MRT last at 96 h in [14] of 14.9 h.
